Patent publication US11807835B2, “Detergent compositions containing a stabilized enzyme by phosphonates” (ECOLAB USA INC., priority 2016, dated 2023)

Experiments:
[1] = system: amylase; assay: Amylase activity retention in detergent use solution (4000 ppm, 5 GPG water; ethylidene substrate EPS, HEPES buffer pH 8.0); type: biochemical
Procedure: (§1) The enzyme activities in the detergents with different phosphonate levels were tested at 4000 ppm in 5 grains per gallon (GPG) water at 120° F. with various time points collected up to 4 hours, after a use solution was generated from the detergent composition. During the tests, the samples at different time points were collected and immediately frozen in an acetone/dry ice bath and stored in −80° C. before the activity of the enzyme was evaluated. For the use of such an assay, t=0 min was the reference point for 100% enzyme activity.
(§2) Assays of enzyme activity in formulations (% retention) were conducted to simulate a presoak condition in a beaker using the chemistry, temperature, and pH conditions relevant to manual warewash or presoak applications. Enzyme activity is an indicator of the stability of the enzyme in the detergent, specifically in an aqueous use solution within a sump (which is under conditions of high pH, temperature and dilution).
(§3) Enzyme activity under presoak or manual warewash conditions was traced quantitatively using a standard protease assay. Samples were prepared under bench top conditions, whereby the use solution from a detergent composition or detergent was obtained and maintained at a presoak or manual warewash temperature in a stirring water bath. After the time course for assessing enzyme stability is initiated, aliquots were taken at various time points and flash-frozen. A time=0 sample was prepared for each series by dissolving the detergent formulation at room temperature, mixing thoroughly, and flash freezing. Samples were thawed and diluted as necessary in an assay buffer usually for use in the protease assay. A glycine buffer at pH 9.0 is used here. The assay monitored the direct reaction of the protease on a small, commercially available peptidyl substrate, with liberation of the product providing correlation to the active enzyme content. The product was detected using a plate reader with an appreciable dynamic range (upper absorbance limit of the instrument >3.5). Enzyme activity levels were assessed relative to a calibration curve with average values for replicate tests used to map protease stability under presoak or manual warewash use conditions. Enzyme retention at each time point was calculated as the % enzyme activity relative to the time=0 sample.
(§4) The analysis by lipase and amylase assay was conducted similarly, except with a different substrate and buffers. For lipase activity, the substrate is p-nitrophenyl valerate, and for amylase, the substrate is an ethylidene substrate (EPS). The buffer used in lipase assay is TRIS (Tris(hydroxymethyl)aminomethane) buffer at pH 8.0, and in amylase assay HEPES (4-(2-hydroxyethyl)-1-piperazineethanesulfonic acid) buffer at pH 8.0.

[2] = system: lipase; assay: Lipase activity retention in detergent use solution (4000 ppm, 5 GPG water; p-nitrophenyl valerate, TRIS buffer pH 8.0); type: biochemical; conditions: Table 6E, phosphonate 0.3 wt-%, room temperature
Procedure: as §1, with “activities in the detergents with different phosphonate levels were tested at 4000 ppm in 5 grains per gallon (GPG) water at 120° F. with various time points” left out
as §2, §3, §4

For `O=C(O)CCC(CC(=O)O)(C(=O)O)P(=O)(O)O` (stereo not drawn) [PBTC, Phosphonebutane tricarboxylic acid], the “Relative Amylase Enzyme Activity” value ([1]; All Ash formula, phosphonate 0.3 wt-%, use solution at 120° F., time 0 min) was 98.88%, the “Relative Amylase Enzyme Activity” value ([1]; All Ash formula, phosphonate 0.3 wt-%, use solution at 120° F., time 5 min) was 100.00% and the “Relative Amylase Enzyme Activity” value ([1]; All Ash formula, phosphonate 0.3 wt-%, use solution at 120° F., time 10 min) was 94.76%. The “Relative Amylase Enzyme Activity” value ([1]; All Ash formula, phosphonate 0.3 wt-%, use solution at 120° F., time 20 min) was 90.04%, the “Relative Amylase Enzyme Activity” value ([1]; All Ash formula, phosphonate 0.3 wt-%, use solution at 120° F., time 40 min) was 63.67% and the “Relative Amylase Enzyme Activity” value ([1]; All Ash formula, phosphonate 0.3 wt-%, use solution at 120° F., time 60 min) was 58.65%. For the same compound, the “Relative Amylase Enzyme Activity” value ([1]; All Ash formula, phosphonate 0.3 wt-%, use solution at 120° F., time 90 min) was 54.03%, the “Relative Amylase Enzyme Activity” value ([1]; All Ash formula, phosphonate 0.3 wt-%, use solution at 120° F., time 120 min) was 45.38% and the “Relative Amylase Enzyme Activity” value ([1]; All Ash formula, phosphonate 0.3 wt-%, use solution at 120° F., time 150 min) was 44.40%. For the same compound, the “Relative Amylase Enzyme Activity” value ([1]; All Ash formula, phosphonate 0.3 wt-%, use solution at 120° F., time 180 min) was 41.15%, the “Relative Amylase Enzyme Activity” value ([1]; All Ash formula, phosphonate 0.3 wt-%, use solution at 120° F., time 210 min) was 41.56% and the “Relative Amylase Enzyme Activity” value ([1]; All Ash formula, phosphonate 0.3 wt-%, use solution at 120° F., time 240 min) was 40.40%. The “Relative Amylase Enzyme Activity” value ([1]; base formula, phosphonate 0.3 wt-%, use solution at 120° F., time 0 min) was 100.00%, the “Relative Amylase Enzyme Activity” value ([1]; base formula, phosphonate 0.3 wt-%, use solution at 120° F., time 5 min) was 96.90% and the “Relative Amylase Enzyme Activity” value ([1]; base formula, phosphonate 0.3 wt-%, use solution at 120° F., time 10 min) was 94.03%. The “Relative Amylase Enzyme Activity” value ([1]; base formula, phosphonate 0.3 wt-%, use solution at 120° F., time 20 min) was 86.69%, the “Relative Amylase Enzyme Activity” value ([1]; base formula, phosphonate 0.3 wt-%, use solution at 120° F., time 40 min) was 83.68% and the “Relative Amylase Enzyme Activity” value ([1]; base formula, phosphonate 0.3 wt-%, use solution at 120° F., time 60 min) was 86.51%. For the same compound, the “Relative Amylase Enzyme Activity” value ([1]; base formula, phosphonate 0.3 wt-%, use solution at 120° F., time 90 min) was 84.89%, the “Relative Amylase Enzyme Activity” value ([1]; base formula, phosphonate 0.3 wt-%, use solution at 120° F., time 120 min) was 85.85% and the “Relative Amylase Enzyme Activity” value ([1]; base formula, phosphonate 0.3 wt-%, use solution at 120° F., time 150 min) was 76.25%. The “Relative Amylase Enzyme Activity” value ([1]; base formula, phosphonate 0.3 wt-%, use solution at 120° F., time 180 min) was 81.01%, the “Relative Amylase Enzyme Activity” value ([1]; base formula, phosphonate 0.3 wt-%, use solution at 120° F., time 210 min) was 81.99% and the “Relative Amylase Enzyme Activity” value ([1]; base formula, phosphonate 0.3 wt-%, use solution at 120° F., time 240 min) was 81.88%. For the same compound, the “Relative Amylase Enzyme Activity” value ([1]; base formula, phosphonate 0.6 wt-%, use solution at 120º F., time 0 min) was 100.00%, the “Relative Amylase Enzyme Activity” value ([1]; base formula, phosphonate 0.6 wt-%, use solution at 120º F., time 5 min) was 107.86% and the “Relative Amylase Enzyme Activity” value ([1]; base formula, phosphonate 0.6 wt-%, use solution at 120º F., time 10 min) was 111.05%. The “Relative Amylase Enzyme Activity” value ([1]; base formula, phosphonate 0.6 wt-%, use solution at 120º F., time 20 min) was 106.52%, the “Relative Amylase Enzyme Activity” value ([1]; base formula, phosphonate 0.6 wt-%, use solution at 120º F., time 40 min) was 73.11% and the “Relative Amylase Enzyme Activity” value ([1]; base formula, phosphonate 0.6 wt-%, use solution at 120º F., time 60 min) was 79.10%. The “Relative Amylase Enzyme Activity” value ([1]; base formula, phosphonate 0.6 wt-%, use solution at 120º F., time 90 min) was 71.11%, the “Relative Amylase Enzyme Activity” value ([1]; base formula, phosphonate 0.6 wt-%, use solution at 120º F., time 120 min) was 64.98% and the “Relative Amylase Enzyme Activity” value ([1]; base formula, phosphonate 0.6 wt-%, use solution at 120º F., time 150 min) was 74.97%. For the same compound, the “Relative Amylase Enzyme Activity” value ([1]; base formula, phosphonate 0.6 wt-%, use solution at 120º F., time 180 min) was 85.22%, the “Relative Amylase Enzyme Activity” value ([1]; base formula, phosphonate 0.6 wt-%, use solution at 120º F., time 210 min) was 94.67% and the “Relative Amylase Enzyme Activity” value ([1]; base formula, phosphonate 0.6 wt-%, use solution at 120º F., time 240 min) was 97.07%. For the same compound, the “Relative Amylase Enzyme Activity” value ([1]; base formula, phosphonate at 0.1% elemental phosphorus level, use solution at 120º F., time 0 min) was 90.07%, the “Relative Amylase Enzyme Activity” value ([1]; base formula, phosphonate at 0.1% elemental phosphorus level, use solution at 120º F., time 5 min) was 100.00% and the “Relative Amylase Enzyme Activity” value ([1]; base formula, phosphonate at 0.1% elemental phosphorus level, use solution at 120º F., time 10 min) was 98.00%. The “Relative Amylase Enzyme Activity” value ([1]; base formula, phosphonate at 0.1% elemental phosphorus level, use solution at 120º F., time 20 min) was 89.44%, the “Relative Amylase Enzyme Activity” value ([1]; base formula, phosphonate at 0.1% elemental phosphorus level, use solution at 120º F., time 40 min) was 90.60% and the “Relative Amylase Enzyme Activity” value ([1]; base formula, phosphonate at 0.1% elemental phosphorus level, use solution at 120º F., time 60 min) was 86.05%. For the same compound, the “Relative Amylase Enzyme Activity” value ([1]; base formula, phosphonate at 0.1% elemental phosphorus level, use solution at 120º F., time 90 min) was 90.47%, the “Relative Amylase Enzyme Activity” value ([1]; base formula, phosphonate at 0.1% elemental phosphorus level, use solution at 120º F., time 120 min) was 89.11% and the “Relative Amylase Enzyme Activity” value ([1]; base formula, phosphonate at 0.1% elemental phosphorus level, use solution at 120º F., time 150 min) was 88.36%. The “Relative Amylase Enzyme Activity” value ([1]; base formula, phosphonate at 0.1% elemental phosphorus level, use solution at 120º F., time 180 min) was 82.80%, the “Relative Amylase Enzyme Activity” value ([1]; base formula, phosphonate at 0.1% elemental phosphorus level, use solution at 120º F., time 210 min) was 84.45% and the “Relative Amylase Enzyme Activity” value ([1]; base formula, phosphonate at 0.1% elemental phosphorus level, use solution at 120º F., time 240 min) was 91.39%. The “Relative Lipase Enzyme Activity in a Use Solution” value (“Relative Lipase Enzyme Activity” below) ([2]; time 0 min) was 100.00%, the “Relative Lipase Enzyme Activity” value ([2]; time 5 min) was 84.82% and the “Relative Lipase Enzyme Activity” value ([2]; time 10 min) was 101.70%. The “Relative Lipase Enzyme Activity” value ([2]; time 20 min) was 98.72%, the “Relative Lipase Enzyme Activity” value ([2]; time 40 min) was 109.31% and the “Relative Lipase Enzyme Activity” value ([2]; time 60 min) was 103.07%.
